Source: US6737383B1, “Herbicidal oxadiazolidines” (priority 1999, dated 2004)

What was measured:
[1] = system: wheat; assay: Test B pre/postemergence wheat; type: in vivo, Triticum aestivum; settings: for Plant response rating, Wheat: Rate 250 g/ha
Method in brief: (§1)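 Herbicidal effect was estimated by eye on a ten-point control scale after plants spent twelve to sixteen days in a greenhouse following soil or foliar treatment. Foliar sprays targeted plants at one to four leaves; all doses were formulated in a non-phytotoxic solvent with surfactant.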

[2] = system: velvetleaf; assay: Test B pre/postemergence velvetleaf; type: in vivo, Abutilon theophrasti; settings: for Plant response rating, Velvetleaf: Rate 250 g/ha
Method in brief: as §1

[3] = system: cocklebur; assay: Test B pre/postemergence cocklebur; type: in vivo, Xanthium strumarium
Method in brief: as §1

[4] = system: morningglory; assay: Test B pre/postemergence morningglory; type: in vivo, Ipomoea hederacea
Method in brief: as §1

[5] = system: pigweed; assay: Test B pre/postemergence pigweed; type: in vivo, Amaranthus retroflexus
Method in brief: as §1

[6] = system: corn; assay: Test B pre/postemergence corn; type: in vivo, Zea mays
Method in brief: as §1

[7] = system: surinam grass; assay: Test B pre/postemergence surinam grass; type: in vivo, Brachiaria decumbens
Method in brief: as §1

[8] = system: bedstraw; assay: Test B pre/postemergence bedstraw; type: in vivo, Galium aparine
Method in brief: as §1

[9] = system: crabgrass; assay: Test B pre/postemergence crabgrass; type: in vivo, Digitaria sanguinalis
Method in brief: as §1

[10] = system: sugar beet; assay: Test B pre/postemergence sugar beet; type: in vivo, Beta vulgaris; settings: for Plant response rating, Sugarbeets: Rate 250 g/ha
Method in brief: as §1

[11] = system: purple nutsedge; assay: Test B pre/postemergence purple nutsedge; type: in vivo, Cyperus rotundus
Method in brief: as §1

[12] = system: giant foxtail; assay: Test B pre/postemergence giant foxtail; type: in vivo, Setaria faberii
Method in brief: as §1

[13] = system: duck salad; assay: Test B flood test duck salad; type: in vivo, Heteranthera limosa
Method in brief: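 Each value is a visual injury score relative to controls, with 10 meaning complete control and 0 no effect. Evaluation took place twelve to sixteen days after the 2-leaf-stage plants were treated and kept in the greenhouse.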

[14] = system: soybean; assay: Test B pre/postemergence soybean; type: in vivo, Glycine max
Method in brief: as §1

[15] = system: rape; assay: Test B pre/postemergence rape; type: in vivo, Brassica napus
Method in brief: as §1

[16] = Postemergence, Rate 125 g/ha, scale of 0 to 10 where 0 is no effect and 10 is complete control
[17] = Preemergence, Rate 62 g/ha, scale 0 to 10 (0 no effect, 10 complete control)
[18] = Preemergence, Rate 125 g/ha, 0 is no effect, 10 is complete control
[19] = Preemergence, scale of 0 to 10 where 0 is no effect and 10 is complete control
[20] = Preemergence, Rate 500 g/ha, scale 0 to 10 (0 no effect, 10 complete control)
[21] = Rate 62 g/ha, Postemergence, scale of 0 to 10 where 0 is no effect and 10 is complete control
[22] = Postemergence, scale 0 to 10, 0 is no effect, 10 is complete control
[23] = Rate 500 g/ha, Postemergence, scale 0 to 10, 0 no effect, 10 complete control
[24] = Postemergence, Rate 250 g/ha, scale 0 to 10, 0 no effect, 10 complete control
[25] = Preemergence, Rate 125 g/ha, scale 0 to 10 (0 no effect, 10 complete control)
[26] = Preemergence, Rate 250 g/ha, scale of 0 to 10 where 0 is no effect and 10 is complete control
[27] = Rate 250 g/ha, Postemergence, scale 0 to 10, 0 is no effect, 10 is complete control

Cc1nn(C)c(Cl)c1-n1c(=O)on(C(=O)N(c2ccccc2)C(C)C)c1=O [Compound 121]
0: Wheat plant response rating [1, 16] | Wheat plant response rating [1, 17] | Wheat plant response rating (0 to 10 scale) [1, 18] | Plant response rating, Wheat [1, 19] | Wheat plant response rating [1, 21] | Plant response rating, Wheat [1, 22] | Wheat plant response rating [1, 23] | Velvetleaf plant response rating [2, 16] | Velvetleaf plant response rating [2, 17] | Velvetleaf plant response rating (0 to 10 scale) [2, 18] | Plant response rating, Velvetleaf [2, 19] | Velvetleaf plant response rating [2, 20] | Velvetleaf plant response rating [2, 21] | Cocklebur plant response rating [3, 17] | Plant response rating, Cocklebur [3, 25] | Cocklebur plant response rating [3, 20] | Cocklebur plant response rating [3, 21] | Morningglory plant response rating [4, 17] | Plant response rating, Morningglory [4, 25] | Plant response rating, Morningglory [4, 26] | Morningglory plant response rating [4, 20] | Corn plant response rating [6, 16] | Corn plant response rating [6, 24] | Corn plant response rating [6, 17] | Plant response rating, Corn [6, 25] | Plant response rating, Corn [6, 26] | Corn plant response rating [6, 20] | Corn plant response rating [6, 21] | Corn plant response rating [6, 23] | B. signalgrass plant response rating ([7]; Postemergence, Rate 62 g/ha, scale 0 to 10, 0 is no effect, 10 is complete control) | B. signalgrass plant response rating [7, 16] | B. signalgrass plant response rating [7, 17] | Bedstraw plant response rating [8, 17] | Plant response rating, Bedstraw [8, 25] | Sugarbeets plant response rating [10, 16] | Sugarbeets plant response rating [10, 17] | Sugarbeets plant response rating [10, 21] | Nutsedge plant response rating [11, 16] | Nutsedge plant response rating [11, 24] | Nutsedge plant response rating [11, 17] | Plant response rating, Nutsedge [11, 25] | Plant response rating, Nutsedge [11, 26] | Nutsedge plant response rating [11, 20] | Nutsedge plant response rating [11, 21] | Nutsedge plant response rating [11, 23] | Ducksalad plant response rating ([13]; Postemergence (flood test species), Rate 125 g/ha, scale of 0 to 10 where 0 is no effect and 10 is complete control) | Ducksalad plant response rating ([13]; Rate 62 g/ha, Postemergence section, flood test species, scale of 0 to 10 where 0 is no effect and 10 is complete control) | Ducksalad plant response rating ([13]; Rate 250 g/ha, headed Pre-emergence (flood test species), scale 0 to 10 (0 no effect, 10 complete control)) | Plant response rating, Ducksalad ([13]; Rate 500 g/ha, headed Pre-emergence (flood test species), scale 0 to 10 (0 no effect, 10 complete control)) | Ducksalad plant response rating ([13]; Rate 500 g/ha, listed under Postemergence (flood test species), scale 0 to 10, 0 no effect, 10 complete control) | Ducksalad plant response rating ([13]; Rate 1000 g/ha, Pre-emergence (as headed), scale 0 to 10) | Ducksalad plant response rating ([13]; Rate 2000 g/ha, Pre-emergence (as headed), scale 0 to 10) | Ducksalad plant response rating ([13]; flood test, listed under Postemergence, Rate 250 g/ha, scale 0 to 10, 0 no effect, 10 complete control) | Soybean plant response rating [14, 17] | Plant response rating, Soybean [14, 25] | Plant response rating, Soybean [14, 26] | Soybean plant response rating [14, 20] | Rape plant response rating [15, 16] | Rape plant response rating [15, 17] | Plant response rating, Rape [15, 25] | Plant response rating, Rape [15, 26] | Rape plant response rating [15, 20] | Rape plant response rating [15, 21]
8: Plant response rating, Redroot pigweed [5, 26] | Redroot pigweed plant response rating [5, 20] | Plant response rating, B. signalgrass [7, 26] | Plant response rating, Crabgrass [9, 26] | Giant foxtail plant response rating [12, 17] | Plant response rating, Giant foxtail [12, 25] | Plant response rating, Giant foxtail [12, 26] | Giant foxtail plant response rating [12, 23]
9: Morningglory plant response rating [4, 23] | B. signalgrass plant response rating [7, 20] | Crabgrass plant response rating [9, 24] | Crabgrass plant response rating [9, 20] | Crabgrass plant response rating [9, 23]
7: Plant response rating, Redroot pigweed [5, 25] | Plant response rating, Crabgrass [9, 25] | Plant response rating, Sugarbeets [10, 19] | Sugarbeets plant response rating [10, 20] | Giant foxtail plant response rating [12, 24]
2: Cocklebur plant response rating [3, 16] | Cocklebur plant response rating [3, 24] | Redroot pigweed plant response rating [5, 16] | Redroot pigweed plant response rating [5, 21] | Plant response rating, Bedstraw [8, 26] | Crabgrass plant response rating [9, 17] | Rape plant response rating [15, 24]
1: Giant foxtail plant response rating [12, 16] | Giant foxtail plant response rating [12, 21]
6: Morningglory plant response rating [4, 16] | Morningglory plant response rating [4, 24] | Bedstraw plant response rating [8, 23] | Crabgrass plant response rating [9, 16] | Plant response rating, Soybean [14, 27] | Soybean plant response rating [14, 23]
3: Wheat plant response rating [1, 20] | Plant response rating, Redroot pigweed [5, 27] | B. signalgrass plant response rating [7, 24] | B. signalgrass plant response rating ([7]; Rate 500 g/ha, Postemergence, scale of 0 to 10 where 0 is no effect and 10 is complete control) | Sugarbeets plant response rating (0 to 10 scale) [10, 18] | Rape plant response rating [15, 23]
4: Plant response rating, Velvetleaf [2, 22] | Velvetleaf plant response rating [2, 23] | Redroot pigweed plant response rating [5, 17] | Plant response rating, B. signalgrass [7, 25] | Crabgrass plant response rating [9, 21] | Plant response rating, Sugarbeets [10, 22] | Sugarbeets plant response rating [10, 23]
10: Giant foxtail plant response rating [12, 20]
5: Cocklebur plant response rating [3, 23] | Morningglory plant response rating [4, 21] | Redroot pigweed plant response rating [5, 23] | Bedstraw plant response rating [8, 20] | Soybean plant response rating [14, 16] | Soybean plant response rating [14, 21]
